Assay [1] deals with T1, dN-SARM1 (Homo sapiens (Human), UniProt Q6SZW1). Kind of assay: In vitro biochemical test of inhibiting SARM1 enzyme activity (% inhibition rate), PC6 fluorescence method. The conditions noted are these: 50 μM compound; 0.05 μg/ml dN-SARM1; 50 μM NAD, 50 μM PC6, 50 μM NMN activator; 30 min room temperature. Here is the method: The compounds were detected by PC6 fluorescence method [Chinese patent 202010528147.3] with the dN-SARM1 protein obtained in “Expression and purification of SARM1 protein” and “(4) Protein extraction” in Example 4 above.
T1 sequence (Q6SZW1 28-724): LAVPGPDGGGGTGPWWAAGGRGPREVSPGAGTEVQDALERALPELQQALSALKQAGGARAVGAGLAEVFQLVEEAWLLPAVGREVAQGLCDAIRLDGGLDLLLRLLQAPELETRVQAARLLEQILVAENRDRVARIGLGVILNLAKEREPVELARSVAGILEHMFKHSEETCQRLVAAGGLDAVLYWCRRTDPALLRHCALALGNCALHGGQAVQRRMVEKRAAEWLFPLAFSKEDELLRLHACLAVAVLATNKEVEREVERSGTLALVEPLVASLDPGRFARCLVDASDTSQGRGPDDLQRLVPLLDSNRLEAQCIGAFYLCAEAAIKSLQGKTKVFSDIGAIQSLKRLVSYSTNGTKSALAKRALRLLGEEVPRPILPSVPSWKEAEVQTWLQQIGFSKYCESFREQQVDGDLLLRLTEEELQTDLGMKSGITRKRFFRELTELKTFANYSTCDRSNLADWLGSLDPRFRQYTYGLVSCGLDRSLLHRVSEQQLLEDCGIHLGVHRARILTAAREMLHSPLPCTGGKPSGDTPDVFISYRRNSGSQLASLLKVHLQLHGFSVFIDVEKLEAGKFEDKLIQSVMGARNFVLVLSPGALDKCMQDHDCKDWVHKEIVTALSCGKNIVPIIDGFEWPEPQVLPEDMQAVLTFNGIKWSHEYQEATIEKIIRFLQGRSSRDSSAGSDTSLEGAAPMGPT
First, 0.05 μg/ml dN-SARM1 and 50 μM compound were incubated in 50 mM Tris-HCl (pH 7.5) solution for 10 min. Then 50 μM NAD, 50 μM PC6 as substrate and 50 μM NMN as activator were added to the dN-SARM1 protein incubated with the drug for 30 min of reaction at room temperature. The concentration of each component was the final concentration in the reaction system.
During the reaction process, PC6 fluorescence spectrum kinetics was detected by a microplate reader at an excitation wavelength and an emission wavelength of 390 nm and 520 nm, respectively. Finally, the activity of the protein was denoted by the reaction rate. The higher the reaction rate, the stronger the protein activity, and the lower the inhibition efficiency of the compound.

For assay [2], the target named is T1, dN-SARM1. Kind of assay: In vitro biochemical test of inhibiting SARM1 enzyme activity (IC50), PC6 fluorescence method. The conditions noted are these: dN-SARM1 0.05 μg/ml; 50 μM NAD, 50 μM PC6, 50 μM NMN activator; 10 min pre-incubation. Here is the method: First, 200 μM of the compound was added to a 50 mM Tris-HCl (pH 7.5) solution containing 0.05 μg/ml dN-SARM1. Then half of the mixture was added to an equal volume of 50 mM Tris-HCl (pH 7.5) solution containing 0.05 μg/ml dN-SARM1 (pH 7.5) for mixing. The drug was diluted 6 times by analogy to final concentrations of 200, 100, 50, 25, 12.5, 6.25, 3.125 μM, or 200, 50, 12.5, 3.125, 0.78, 0.195, 0.049 μM. The solution without addition of inhibitor was control group. The above solutions were incubated at room temperature for 10 min.
Then 50 μM NAD, 50 μM PC6 as substrate and 50 μM NMN as activator were added to the dN-SARM1 protein incubated with inhibitor for 30 min of reaction at room temperature. The concentration of each component was the final concentration in the reaction system.
During the reaction process, PC6 fluorescence spectrum kinetics was detected by a microplate reader at an excitation wavelength and an emission wavelength of 390 nm and 520 nm, respectively. Finally, the activity of the protein was denoted by the reaction rate, and the half-inhibition concentration was calculated. The higher the reaction rate, the stronger the protein activity, and the lower the inhibition efficiency of the compound.

The target in assay [3] is SARM1 in iSARM1 (HEK293) cells (Homo sapiens (Human), UniProt Q6SZW1). Kind of assay: Inhibition of SARM1 activity in cell line with inducible overexpression of SARM1 (intracellular cADPR level). The format is cell-based. The conditions noted are these: 50 μM inhibitor, 100 μM CZ-48 activator, 16 h, cADPR content. Here is the method:
Firstly, a 96-well culture dish was treated with 0.05 mg/ml polylysine for 5 min, and washed once with PBS. 3×10^4 iSARM1 (HEK293) cells were plated into the 96-well plate and cultured in a 37° C. and 5% incubator overnight. The next day, the cells were added with an inhibitor with a final concentration of 50 μM, cultured in the incubator for 1.5 h, then added with the activator CZ-48 with a final concentration of 100 μM, and co-cultured for 16 h. In addition, a control group without addition of CZ-48 or drug was set up. Finally, the intracellular cADPR level was detected to denote the activity of SARM1, and the inhibition rate of SARM1 by 50 μM inhibitor in cells was calculated.
The cADPR assay was conducted as follows. First, the cells were washed once with PBS, and added with 150 μl of pre-cooled 0.6M perchloric acid (PCA) for rapid lysis of the cells and precipitation of proteins. […]
The content of cADPR in the solution was determined by Cycling analysis, which was operated as follows. […] Each well of the 96-well plate was added with the reaction solution containing or not containing cyclase for reaction, and the reaction kinetic curve within 30 min (Ex:Em=544/599) was recorded. The average slope of the reaction was calculated, and the accurate cADPR content was calculated by converting the cADPR standard. […]

Consider 16 compounds from US20230414581A1, “SARM1 ENZYME ACTIVITY INHIBITOR AND USE THEREOF IN NEURODEGENERATIVE DISEASES” (ARTIVILA BIOPHARMA, priority 2020, published 2023).

Chain of SARM1 in iSARM1 (HEK293) cells (Q6SZW1 28-724): as above

Regarding `Oc1cc(Cl)ccc1Oc1ccc(Cl)cc1Cl` [Compound 35], at dN-SARM1 [1], the “Inhibition rate of enzyme activity” value is recorded as 102%. Further, the IC50 (commonly the concentration that inhibits the measured activity by half) at dN-SARM1 [2] was over 10000 nM.
With `O=C(C=Cc1cccc(S(=O)(=O)Nc2ccccc2)c1)NO` [Compound 42], on dN-SARM1 [1], the “Inhibition rate of enzyme activity” value came to 67.4%.
In the case of `Cc1ccc(-n2sc(=O)n(Cc3ccc(F)cc3)c2=O)cc1` [Compound 6], at dN-SARM1 [2], the IC50 was under 1000 nM.
`N#Cc1c(Cl)cc(Cl)cc1Sc1cc(Cl)cc(Cl)c1O` [Compound 36]: the “Inhibition rate of enzyme activity” value on dN-SARM1 [1] is on record as 98.5%. The compound also yielded a half-inhibitory concentration (IC50) at dN-SARM1 [2] of over 10000 nM.
Take `Cc1cccc(Cl)c1-n1sc(=O)n(CC2CC2)c1=O` [Compound 4]: the IC50 against dN-SARM1 [2] was under 1000 nM.
With `CCN(CC)C(=S)SSC(=S)N(CC)CC` [Compound 37], on dN-SARM1 [1], the “Inhibition rate of enzyme activity” value was determined as 101%. On dN-SARM1 [2], this compound had an IC50 of under 1000 nM.
Consider `CC(C)c1ccc(-n2c(=O)sn(-c3ccc(SC(F)(F)F)cc3)c2=O)cc1` [Compound 8], for which the IC50 against dN-SARM1 [2] is 1000 to 10000 nM.
With `O=C(/C=C/c1ccc(CNCCc2c(O)[nH]c3ccccc23)cc1)NO` [Compound 41], the “Inhibition rate of enzyme activity” value at dN-SARM1 [1] is on record as 67.3%.
On to `O=c1sn(-c2cccc3ccccc23)c(=O)n1Cc1ccccc1` [Compound 7], for which the “Inhibition rate of enzyme activity” value on dN-SARM1 [1] came to 98.6%. On dN-SARM1 [2], this compound came in with a concentration for half-maximal inhibition (IC50) of under 1000 nM.
As for `O=C(CCCCCCC(=O)Nc1ccccc1)NO` [Compound 40], the “Inhibition rate of enzyme activity” value at dN-SARM1 [1] came out at 75.6%.
Take `CCn1c(=O)/c(=C2\Sc3ccccc3N2C)s/c1=C\c1cccc[n+]1CC` [Compound 39]: on dN-SARM1 [2], the IC50 was in the range of 1000 to 10000 nM.
The same measure, in the same setting: the same measure for `Cn1sc(=O)n(Cc2ccccc2)c1=O` [Compound 1]: under 1000 nM.
For the compound `O=c1sn(-c2ccccc2C(F)(F)F)c(=O)n1CC1CC1` [Compound 2], the IC50 against dN-SARM1 [2] is under 1000 nM. The Inhibition rate entry in assay [3] was “B (B: 25-50%)”.
For the compound `N#Cc1ccc(Cl)cc1Cc1cc(Cl)ccc1C#N` [Compound 32], at dN-SARM1 [1], the “Inhibition rate of enzyme activity” value worked out at 93.7%. This compound also came in with an IC50 against dN-SARM1 [2] of over 10000 nM.
On the same counts, the results for `O=C(CCCCCCNC(=O)c1cnc(N(c2ccccc2)c2ccccc2)nc1)NO` [Compound 43] are 85.3% and over 10000 nM.
Consider `Cn1c(=O)sn(-c2cccc3ccccc23)c1=O` [Compound 3], for which the IC50 on dN-SARM1 [2] is under 1000 nM.
